Data published in patent US20040063790A1, “Methods for inhibition of angiogenesis” (The Scripps Research Institute, priority 1996, published 2004).
One block for each molecule: values may come before it. Where a SMILES comes first, the peptide text is derived from it. [ ]: non-standard residue; d: D form.

Columns and labels:
[1] = tested on: bFGF-induced angiogenesis; assay: CAM assay, growth factor-induced angiogenesis, topical application; format: in vivo, chick; settings: 80 μg peptide topically at 0, 24 and 48 hrs; viewed at 72 hours
Procedure: J. Pathol., 79:597 (1975). CAMs were prepared from chick embryos for subsequent induction of angiogenesis and inhibition thereof as described in Examples 4 and 5, respectively. Ten day old chick embryos were obtained from McIntyre Poultry (Lakeside, Calif.) and incubated at 37° C. with 60% humidity. A small hole was made through the shell at the end of the egg directly over the air sac with the use of a small crafts drill (Dremel, Division of Emerson Electric Co. Racine Wis.). A second hole was drilled on the broad side of the egg in a region devoid of embryonic blood vessels determined previously by candling the egg. […]
Angiogenesis was induced by placing a 5 millimeter (mm)×5 mm Whatman filter disk (Whatman Filter paper No.1) saturated with Hanks Balanced Salt Solution (HBSS, GIBCO, Grand Island, N.Y.) or HBSS containing 150 nanograms/milliliter (ng/ml) recombinant basic fibroblast growth factor (bFGF) (Genzyme, Cambridge, Mass.) on the CAM of a 10-day chick embryo in a region devoid of blood vessels and the windows were latter sealed with tape. […] For assays where inhibition of angiogenesis ws evaluated with intravenous injections of antagonists, angiogenesis was first induced with 1-2 μg/ml bFGF in fibroblast growth medium. Angiogenesis was monitored by photomicroscopy after 72 hours. […]
Quantification was performed in a double blind manner by at least two independent observers. […]

αIIbβ3 = biological target: T1, αIIbβ3 (Homo sapiens, UniProt P05106+P08514); assay: Ligand-receptor binding assay, immobilized αIIbβ3; settings: radiolabeled fibrinogen; average of duplicate data points ± standard deviation; read-out: αIIbβ3 (IC50 μM)
T1 construct: selected purified integrins were separately immobilized in Titertek microtiter wells
Text: (§1) Herein described is a method of identifying antagonists in a ligand-receptor binding assay in which the receptor is immobilized to a solid support and the ligand and antagonist are soluble. Also described is a ligand-receptor binding assay in which the ligand is immobilized to a solid support and the receptor and antagonists are soluble.
(§2) Briefly, selected purified integrins were separately immobilized in Titertek microtiter wells at a coating concentration of 50 nanograms (ng) per well. The purification of the receptors used in the ligand-receptor binding assays are well known in the art and are readily obtainable with methods familiar to one of ordinary skill in the art. After incubation for 18 hours at 4° C., nonspecific binding sites on the plate were blocked with 10 milligrams/milliliter (mg/ml) of bovine serum albumin (BSA) in Tris-buffered saline. […] Radiolabeled ligands were used at concentrations of 1 nM and binding was challenged separately with unlabeled synthetic peptides.
(§3) Following a three hour incubation, free ligand was removed by washing and bound ligand was detected by gamma counting. […] The IC50 data in micromoles (IC50 μM) are expressed as the average of duplicate data points±the standard deviation as shown in Table 2.

αvβ3 = biological target: T2, αvβ3 (Homo sapiens, UniProt P05106+P06756); assay: Ligand-receptor binding assay, immobilized αvβ3
T2 construct: selected purified integrins were separately immobilized in Titertek microtiter wells
Text: as §1, §2, §3

[2] = tested on: retinal neovascularization; settings: Hammes et al., Nature Med. 1996; cited from earlier work
αvβ3 integrin = αvβ3 integrin (Homo sapiens, UniProt P05106+P06756); settings: Pfaff et al. 1994; not to the αIIbβ3 or α5β1 integrins; cited from earlier work
[3] = tested on: tumor-induced angiogenesis; assay: CAM assay, tumor-induced angiogenesis, intravenous application; format: in vivo, chick; settings: intravenous injection
Procedure: Angiogenesis was induced in the CAM assay system by direct apposition of a tumor fragment on the CAM. Preparation of the chick embryo CAM was identical to the procedure described above. Instead of a filter paper disk, a 50 milligram (mg) to 55 mg in weight fragment of one of human melanoma tumor M21-L, human lung carcinoma tumor UCLAP-3, human pancreatic carcinoma cell line FG (Cheresh et al., Cell 58:945-953, 1989), or human laryngeal carcinoma cell line HEp3, all of which are αvβ3 negative tumors, was placed on the CAM in an area originally devoid of blood vessels.
The M21-L human melanoma cell line, UCLAP-3 human lung carcinoma cell line, FG pancreatic carcinoma cell line, or HEp3 human laryngeal carcinoma cell line, all αvβ3 negative, were used to grow the solid human tumors on the CAMs of chick embryos. A single cell suspension of 8×10^6 M21-L, UCLAP-3, and FB or 5×10^5 HEp3 cells was first applied to the CAMs in a total volume of 30 μl of sterile HBSS. The windows were sealed with tape and the embryos were incubated for 7 days to allow growth of human tumor lesions. At the end of 7 days, now a 17-day embryo, the tumors were resected from the CAMs and trimmed free of surrounding CAM tissue. […]
The effects of peptide exposure to tumor-induced vasculature in the CAM assay system was also assessed. […]

M21-L melanoma tumor = assay: In vivo chimeric mouse:human assay; set-up: species or system SCID mouse; settings: intravenous, FIG. 18
Procedure: An in vivo chimeric mouse:human model was generated by replacing a portion of skin from a SCID mouse with human neonatal foreskin (FIG. 4). After the skin graft was established, the human foreskin was inoculated with carcinoma cells. After a measurable tumor was established, either an αvβ3 antagonist or PBS was injected into the mouse tail vein. Following a 2-3 week period, the tumor was excised and analyzed by weight and histology.
The in vivo chimeric mouse:human model is prepared essentially as described in Yan, et al., J. Clin. Invest., 91:986-996 (1993). Briefly, a 2 cm^2 square area of skin was surgically removed from a SCID mouse (6-8 weeks of age) and replaced with a human foreskin. The mouse was anesthetized and the hair removed from a 5 cm^2 area on each side of the lateral abdominal region by shaving. Two circular graft beds of 2 cm^2 were prepared by removing the full thickness of skin down to the fascia. Full thickness human skin grafts of the same size derived from human neonatal foreskin were placed onto the wound beds and sutured into place. […]
In a procedure similar to that described above for monoclonal antibodies, peptide antagonists of αvβ3 were injected intravenously into the tail vein of SCID mice having measurable M21-L tumors. […] The mean volume and weight of resected tumors following treatment were determined with the results respectively shown in FIGS. 19A and 19B.

T2 sequence (P06756 31-889 limits assumed): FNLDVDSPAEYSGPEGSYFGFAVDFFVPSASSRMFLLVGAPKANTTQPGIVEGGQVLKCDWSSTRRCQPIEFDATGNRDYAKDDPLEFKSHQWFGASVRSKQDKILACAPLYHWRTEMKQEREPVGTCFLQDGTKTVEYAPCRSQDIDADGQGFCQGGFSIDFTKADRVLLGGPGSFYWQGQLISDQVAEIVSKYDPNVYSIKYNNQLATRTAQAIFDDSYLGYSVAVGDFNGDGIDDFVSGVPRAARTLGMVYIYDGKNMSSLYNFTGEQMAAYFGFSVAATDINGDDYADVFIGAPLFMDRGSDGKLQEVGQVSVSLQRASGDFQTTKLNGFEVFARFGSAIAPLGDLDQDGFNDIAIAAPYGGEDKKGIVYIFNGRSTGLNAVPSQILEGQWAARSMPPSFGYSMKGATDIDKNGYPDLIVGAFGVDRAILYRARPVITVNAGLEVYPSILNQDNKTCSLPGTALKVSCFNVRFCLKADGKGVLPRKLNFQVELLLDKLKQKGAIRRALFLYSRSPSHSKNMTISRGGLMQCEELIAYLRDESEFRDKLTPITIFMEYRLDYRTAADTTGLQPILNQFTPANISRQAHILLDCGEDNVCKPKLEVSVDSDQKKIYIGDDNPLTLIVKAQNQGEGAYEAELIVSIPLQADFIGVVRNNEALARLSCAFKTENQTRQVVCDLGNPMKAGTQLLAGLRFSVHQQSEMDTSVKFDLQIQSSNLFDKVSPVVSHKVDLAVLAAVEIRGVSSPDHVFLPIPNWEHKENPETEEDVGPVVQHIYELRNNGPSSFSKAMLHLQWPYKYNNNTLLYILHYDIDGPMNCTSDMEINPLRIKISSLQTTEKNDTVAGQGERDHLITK
T2 sequence (P06756 891-1048 partner limits assumed): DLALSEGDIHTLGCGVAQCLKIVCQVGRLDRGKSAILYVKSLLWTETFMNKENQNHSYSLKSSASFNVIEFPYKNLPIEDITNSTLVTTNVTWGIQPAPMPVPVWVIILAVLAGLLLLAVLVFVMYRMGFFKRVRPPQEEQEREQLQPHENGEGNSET
T2 sequence (P05106 27-788): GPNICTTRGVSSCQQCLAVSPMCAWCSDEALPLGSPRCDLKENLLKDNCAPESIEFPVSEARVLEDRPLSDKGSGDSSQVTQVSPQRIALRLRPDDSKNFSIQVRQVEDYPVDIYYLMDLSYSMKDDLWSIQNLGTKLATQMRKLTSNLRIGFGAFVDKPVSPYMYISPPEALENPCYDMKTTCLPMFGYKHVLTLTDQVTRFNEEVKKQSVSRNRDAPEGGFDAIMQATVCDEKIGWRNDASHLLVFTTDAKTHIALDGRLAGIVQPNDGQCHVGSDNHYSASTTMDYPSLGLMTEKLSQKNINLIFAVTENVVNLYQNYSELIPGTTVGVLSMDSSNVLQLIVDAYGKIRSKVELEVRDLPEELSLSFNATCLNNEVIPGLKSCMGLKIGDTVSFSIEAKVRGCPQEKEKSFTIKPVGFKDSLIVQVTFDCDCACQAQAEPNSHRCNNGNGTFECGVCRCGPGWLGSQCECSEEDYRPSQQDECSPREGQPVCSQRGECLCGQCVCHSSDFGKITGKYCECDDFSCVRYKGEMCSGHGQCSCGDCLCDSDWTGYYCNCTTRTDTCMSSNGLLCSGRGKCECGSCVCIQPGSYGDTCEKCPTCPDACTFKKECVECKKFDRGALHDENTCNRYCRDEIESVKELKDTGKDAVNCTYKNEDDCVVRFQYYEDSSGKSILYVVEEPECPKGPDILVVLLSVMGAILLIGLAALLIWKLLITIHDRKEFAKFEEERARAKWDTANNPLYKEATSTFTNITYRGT
Chain of αvβ3 integrin (P06756 31-889 limits assumed): as the sequence (P06756 31-889 limits assumed) above
Chain of αvβ3 integrin (P06756 891-1048 partner limits assumed): as the sequence (P06756 891-1048 partner limits assumed) above
Chain of αvβ3 integrin (P05106 27-788): as the sequence (P05106 27-788) above
T1 sequence (P08514 32-887 limits assumed): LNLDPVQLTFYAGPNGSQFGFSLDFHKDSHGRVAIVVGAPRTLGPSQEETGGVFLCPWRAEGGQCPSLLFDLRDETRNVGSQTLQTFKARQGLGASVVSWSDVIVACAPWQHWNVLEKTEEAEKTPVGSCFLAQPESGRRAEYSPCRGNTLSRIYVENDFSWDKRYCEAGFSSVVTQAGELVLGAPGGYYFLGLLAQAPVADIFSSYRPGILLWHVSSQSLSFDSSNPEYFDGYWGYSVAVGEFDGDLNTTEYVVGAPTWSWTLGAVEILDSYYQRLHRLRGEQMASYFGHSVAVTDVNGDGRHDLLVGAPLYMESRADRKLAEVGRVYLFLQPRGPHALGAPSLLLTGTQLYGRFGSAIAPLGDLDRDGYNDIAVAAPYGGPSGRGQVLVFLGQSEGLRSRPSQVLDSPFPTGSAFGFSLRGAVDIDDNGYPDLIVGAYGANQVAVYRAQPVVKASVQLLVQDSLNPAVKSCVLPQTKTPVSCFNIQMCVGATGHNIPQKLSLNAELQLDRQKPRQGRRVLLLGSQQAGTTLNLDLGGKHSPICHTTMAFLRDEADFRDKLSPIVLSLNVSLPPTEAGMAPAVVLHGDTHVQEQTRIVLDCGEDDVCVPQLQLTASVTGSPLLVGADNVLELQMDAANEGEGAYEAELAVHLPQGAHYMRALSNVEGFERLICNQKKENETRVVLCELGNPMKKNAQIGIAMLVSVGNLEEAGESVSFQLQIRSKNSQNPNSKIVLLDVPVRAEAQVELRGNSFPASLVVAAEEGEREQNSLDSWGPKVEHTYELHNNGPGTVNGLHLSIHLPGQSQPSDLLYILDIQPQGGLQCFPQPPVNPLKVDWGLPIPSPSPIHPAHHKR
T1 sequence (P08514 891-1039 partner limits assumed): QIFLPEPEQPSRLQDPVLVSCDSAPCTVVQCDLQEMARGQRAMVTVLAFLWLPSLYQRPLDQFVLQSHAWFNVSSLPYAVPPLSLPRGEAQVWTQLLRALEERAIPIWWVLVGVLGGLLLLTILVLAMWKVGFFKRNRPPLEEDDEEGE
T1 sequence (P05106 27-788): as the sequence (P05106 27-788) above

IC50 (αIIbβ3): 100 ± 0.001 µM
IC50 (αvβ3; radiolabeled fibrinogen, average of duplicate data points ± standard deviation, read-out: αvβ3 (IC50 μM)): 57.5 ± 7.84 µM
Molecule: CC(C)[C@@H]1NC(=O)[C@H](Cc2ccccc2)NC(=O)[C@H](CC(=O)O)NC(=O)[C@@H](C)NC(=O)[C@H](CCCNC(=N)N)NC1=O [Peptide 62186, cyclo (RaDFV)] (cyclo(R[dA]DFV))
effect on bFGF-induced blood vessel formation [1]: remained undisturbed
preference of inhibition of fibrinogen binding, αvβ3 versus αIIbβ3 (αvβ3; comparison of half-maximal concentrations of Table 2): either not as effective in blocking fibrinogen binding to αvβ3 or exhibited preferential inhibition of fibrinogen binding to αIIbβ3

Molecule: cyclic RGDfV
inhibition of retinal neovascularization [2]: inhibited retinal neovascularization
inhibition of fibrinogen binding to integrins (αvβ3 integrin): specifically inhibited binding of fibrinogen to the αvβ3 integrin

Molecule: CC(C)[C@@H]1NC(=O)[C@@H](Cc2ccccc2)NC(=O)[C@H](CC(=O)O)NC(=O)CNC(=O)[C@H](CCCNC(=N)N)NC1=O [Peptide 62184, cyclo (RGDfV)]
effect on bFGF-induced blood vessel formation [1]: formation of blood vessels was inhibited
inhibition of tumor-induced blood vessel formation [3]: demonstrated to inhibit angiogenesis

B1: LM609: monoclonal antibody specific for αvβ3 (anti-αvβ3) (antibody, V domains shown)
VH: EVQLEESGGGLVKPGGSLKLSCAASGFAFSSYDMSWVRQIPEKRLEWVAKVSSGGGSTYYLDTVQGRFTISRDNAKNTLYLQMSSLNSEDTAMYYCARHNYGSFAYWGQGTLVTVSA
VL: ELVMTQTPATLSVTPGDSVSLSCRASQSISNHLHWYQQKSHESPRLLIKYASQSISGIPSRFSGSGSGTDFTLSINSVETEDFGMYFCQQSNSWPHTFGGGTKLEIKRA
tumor volume (M21-L melanoma tumor): approximately 60 mm^3
